Source: US20230365533A1, “BICYCLOHEPTANE PYRROLIDINE OREXIN RECEPTOR AGONISTS” (MERCK SHARP & DOHME CORP., priority 2021, published 2023)

Target: T1, human OX2R (Homo sapiens, UniProt O43614)
T1 construct: expressed in transfected cells; host or cells: CHO (Chinese hamster ovary) cells, grown under G418 selection
T1 sequence (O43614 1-444): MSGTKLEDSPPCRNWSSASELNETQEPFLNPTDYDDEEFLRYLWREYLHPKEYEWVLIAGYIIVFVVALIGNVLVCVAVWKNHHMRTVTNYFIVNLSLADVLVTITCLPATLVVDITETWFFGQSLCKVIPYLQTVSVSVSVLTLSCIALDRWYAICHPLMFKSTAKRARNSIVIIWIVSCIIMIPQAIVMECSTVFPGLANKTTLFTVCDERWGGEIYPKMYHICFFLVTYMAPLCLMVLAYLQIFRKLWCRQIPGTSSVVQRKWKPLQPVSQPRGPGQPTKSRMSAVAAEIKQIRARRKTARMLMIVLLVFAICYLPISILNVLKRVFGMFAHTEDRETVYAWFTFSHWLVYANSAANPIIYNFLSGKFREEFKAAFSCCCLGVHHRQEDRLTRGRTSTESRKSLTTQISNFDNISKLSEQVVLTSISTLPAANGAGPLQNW
Assay: IPOne (IP-1) orexin receptor agonist assay in CHO cells expressing human OX2R
Assay type: cell-based
Conditions: IPOne assay, CHO cells expressing human OX2R, 2 hours incubation; read-out: hoX2R_IP IC50
Procedure, shortened: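 CHO cells with human OX2R treated 2 h at 37 °C with 10-point ½-log compound dilutions in stimulation buffer; IP-1 accumulation read by HTRF (665/620 nm) after 60 min detection. EC50 from four-parameter fit; % effect versus a 1 uM reference agonist.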

IC50: 24.5 nM
Compound: COC(=O)N1[C@H](C)C[C@H](NS(C)(=O)=O)[C@@H]1CO[C@@H]1CC[C@]2(c3ncc(F)cn3)C[C@@H]2C1 (single isomer, unassigned) [Example 136]
